Reference: patent US20240002458A1, “NOVEL VHL SMALL MOLECULE PROBES” (St. Jude Children's Research Hospital, priority 2020, published 2024)

How the values were obtained:
[1] = target: T1, GST-VCB protein complex (Homo sapiens, UniProt P40337); experiment: BODIPY FL VH032 (5)-mediated pVHL TR-FRET binding assay (competition); conditions: for IC50 / Ki: 4 nM BODIPY FL VH032 (5), 2 nM Tb-anti-GST; for IC50 / Ki / pVHL inhibitory activity in the TR-FRET binding assay: 90-min incubation; for Ki: read-out: Ki, pVHL TR-FRET binding assay (Cheng-Prusoff); for pVHL inhibitory activity in the TR-FRET binding assay: 2.1 pM to 30 μM
[2] = target: T1, GST-VCB protein complex; experiment: BODIPY FL VH032 (5)-mediated pVHL FP binding assay (competition); conditions: for pVHL inhibitory activity in the FP assay: 2.1 pM to 30 μM
Description: It was freshly prepared every time before an experiment. […] The FP signals were determined at the 90-min incubation time. […] The FP signals or the FP signal fold changes were plotted with the GraphPad Prism software. […] The FP Ki values were used to compare the relative binding affinities of the test ligands to pVHL.

[3] = target: VCB (Homo sapiens, UniProt P40337); conditions: 10 nM FAM-HIF-1α, 15 nM VCB; read-out: Kd, reported FAM-HIF-1α peptide (19-mer)-based FP assay; cited from earlier work
[4] = target: T1, GST-VCB protein complex; experiment: Determination of BODIPY FL VH032 (5) binding Kd to GST-VCB protein complex in a TR-FRET binding assay; conditions: for Kd: 2 nM GST-VCB
Source text: For the BODIPY FL VH032 (5)-mediated pVHL TR-FRET binding assay, a reported TR-FRET assay protocol (Lin, et al. (2014) Development of BODIPY FL vindoline as a novel and high-affinity pregnane X receptor fluorescent probe. Bioconjug Chem 25, 1664-1677) was followed except that an Echo 555 Acoustic Liquid Handler (Labcyte Inc., San Jose, CA) was used to dispense chemicals and BODIPY FL VH032 (5), GST-VCB and Tb-anti-GST antibody were used.
The pVHL TR-FRET binding assay buffer has a formula of 50 mM Tris pH 7.5, 0.1% Triton X-100, 0.01% bovine serum albumin, 1 mM DTT. It was freshly prepared every time before an experiment.
Dilutions of BODIPY FL VH032 (5, 1-to-2 dilutions, a concentration range of 0.06 nM to 500 nM) was incubated with 2 nM Tb-anti-GST along with, group 1: 2 nM GST-VCB+DMSO; group 2: 2 nM GST-VCB+VH298 (2, 30 μM); or group 3: without GST-VCB+DMSO. The TR-FRET signals were monitored every 30 min from 30 min to 300 min with a PHERAstar FS plate reader equipped with a TR-FRET optic module (excitation: 340 nm; emission 1: 520 nm; emission 2: 490 nm). The TR-FRET signals were fitted into GraphPad Prism 8.4.3 software (GraphPad Software; San Diego, CA) using a one-site total binding equation to derive curves for each group.

[5] = target: T1, GST-VCB protein complex; experiment: Determination of BODIPY FL VH032 (5) binding Kd to GST-VCB protein complex in a FP binding assay; conditions: VH298 30 μM, 1000 nM GST-VCB, 10 nM probe
Description: For the BODIPY FL VH032 (5)-mediated pVHL FP binding assay, the general TR-FRET assay protocol was followed except that the […] antibody was not added and the PHERAstar FS plate reader (BMG Labtech; Durham, NC) was equipped with a FP optic module (Excitation: 485 nm, Emission: 520 nm) to read FP assay signals.
The pVHL FP assay buffer has a formula of 25 mM HEPES pH 7.4, 0.01% Tween-20, 0.5 mM DTT, 0.01% BSA. It was freshly prepared every time before an experiment.
BODIPY FL VH032 (5, 10 nM) was incubated with dilutions of GST-VCB (1-to-2 dilutions, a concentration range of 0.03 nM to 1 μM) along with the DMSO group or VH298 (2, 30 μM) group. In addition, BODIPY FL VH032 (5, 10 nM) was incubated with DMSO only, but without GST-VCB. The FP signals were determined with the PHERAstar FS plate reader. The representative data collected at 90-min incubation time was plotted with the GraphPad Prism software using a one-site total binding equation to derive curves for each group. The binding affinity Kd values were derived from the DMSO with GST-VCB.

In the case of Cc1ncsc1-c1ccc(CNC(=O)[C@@H]2C[C@@H](O)CN2C(=O)[C@@H](NC(=O)OC(C)(C)C)C(C)(C)C)cc1 [BOC-VH032 (8)], the IC50 ([1]; 2 nM GST-VCB) is reported as 4900 nM, the Ki ([1]; 2 nM GST-VCB) is reported as 2100 nM and the IC50 ([2]; 10 nM BODIPY FL VH032 (5), 100 nM GST-VCB, 90-min incubation) is reported as 16300 nM. For the same compound, the Ki ([2]; 10 nM BODIPY FL VH032 (5), 100 nM GST-VCB, 90-min incubation, read-out: Ki, pVHL FP assay (Nikolovska-Coleska method)) was 8000 nM and the Kd [3] was 6500 nM.

CC1=CC(C)=[N+]2C1=Cc1ccc(CCC(=O)NCCOCCOCCOCCOCC(=O)NC(C(=O)N3CC(O)CC3C(=O)NCc3ccc(-c4scnc4C)cc3)C(C)(C)C)n1[B-]2(F)F [BODIPY FL VH032 (5), (2S,4R)-1-4S)-2-(tert-butyl)-21-(5,5-difluoro-7,9-Dimethyl-5H-5Λ^4,6Λ^4-dipyrrolo[1,2-c:2′,1′-f][1,3,2]diazaborinin-3-yl)-4,19-dioxo-6,9,12,15-tetraoxa-3,18-diazahenicosanoyl)-4-hydroxy-N-(4-O-methylthiazol-5-yl)benzyl)pyrrolidine-2-carboxamide] showed a Kd ([4]; 90-min incubation, 2 nM Tb-anti-GST) of 3.01 nM, a Kd ([4]; 120-min incubation) of 3.04 nM and a Kd ([4]; 150-min incubation) of 3.01 nM. The Kd ([4]; 180-min incubation) was 2.98 nM, the Kd ([4]; 240-min incubation) was 2.98 nM and the Kd ([4]; 300-min incubation) was 3.04 nM. For the same compound, the “highest TR-FRET signal fold change, 2 nM GST-VCB+DMSO / without GST-VCB+DMSO” value ([4]; at 3.9 nM BODIPY FL VH032 (5), 90 min) was 16.2 fold and the “highest TR-FRET signal fold change, 2 nM GST-VCB+DMSO / 2 nM GST-VCB+VH-298 (2)” value ([4]; at 7.8 nM BODIPY FL VH032 (5), 90 min) was 15.1 fold.

With NCCCCNC(=O)COc1cccc2c1C(=O)N(C1CCC(=O)NC1=O)C2=O (stereo not drawn) the “pVHL inhibitory activity in the TR-FRET binding assay” value [1] was “inactive” and the “pVHL inhibitory activity in the FP assay” value ([2]; 90-min incubation) was “did not show pVHL inhibitory activity”.

With Cc1ncsc1-c1ccc(CNC(=O)[C@@H]2C[C@@H](O)CN2C(=O)[C@@H](NC(=O)C2(C#N)CC2)C(C)(C)C)cc1 [VH298 (2), (2S,4R)-1-((S)-2-(1-Cyanocyclopropanecarboxamido)-3,3-dimethylbutanoyl)-4-hydroxy-N-(4-(4-methylthiazol-5-yl)benzyl)pyrrolidine-2-carboxamide] the “TR-FRET signal of the positive control group” value ([1]; VH298 30 μM, 2 nM GST-VCB, 4 nM probe, all incubation times 30 to 300 min) was 278.7±4.5 RTU, the “FP signal of the positive control” value ([2]; VH298 30 μM, 10 nM probe, 100 nM GST-VCB, 90 min) was 14.5 mP and the “FP signal, GST-VCB-mediated non-specific interaction” value [5] was 43.0 mP.

Compound Cc1ncsc1-c1ccc(CNC(=O)[C@@H]2C[C@@H](O)CN2C(=O)[C@@H](NC(=O)COCCOCCOCCOCCN)C(C)(C)C)cc1 [VH032-PEG4-amine (10)] has an IC50 ([1]; 2 nM GST-VCB) of 5.9 nM.

With Cc1ncsc1-c1ccc([C@H](C)NC(=O)[C@@H]2C[C@@H](O)CN2C(=O)[C@@H](N)C(C)(C)C)cc1 [Me-VH032 amine (7)] the IC50 ([1]; 2 nM GST-VCB) was 7900 nM, the Ki ([1]; 2 nM GST-VCB) was 3400 nM and the “concentration at which the compound disturbed the FP assay detection (assay interference)” value ([2]; FP assay, not observed in TR-FRET) was ≥ 370 nM.

With Cc1sc2c(c1C)C(c1ccc(Cl)cc1)=N[C@@H](CC(=O)NCCCCNC(=O)COc1cccc3c1C(=O)N(C1CCC(=O)NC1=O)C3=O)c1nnc(C)n1-2 (stereo partly drawn) [dBET1 (12)] the “pVHL inhibitory activity in the TR-FRET binding assay” value [1] was “inactive” and the “pVHL inhibitory activity in the FP assay” value ([2]; 90-min incubation) was “did not show pVHL inhibitory activity”.
